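Where inhibition never reached the appropriate level, the endpoint shown equals the highest concentration tested. Otherwise, values were interpolated linearly from a five-concentration, 48-hour dose response in 96-well plates. Here, GI50 denotes the concentration required for 50% inhibition of growth.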 Calls of active or inactive are those of the source. Rule as the data show it: active = GI50 up to about 1.1 µM and inactive = higher.
What was measured:
Test in all cases: DTP human tumour cell line panel, 48 h
LOX IMVI = system: LOX IMVI
SK-MEL-5 = system: SK-MEL-5
RXF 393 = system: RXF 393
SW-620 = system: SW-620
SK-OV-3 = system: SK-OV-3
NCI/ADR-RES = system: NCI/ADR-RES
UACC-62 = system: UACC-62
BT-549 = system: BT-549
IGROV-1 = system: IGROV-1
OVCAR-5 = system: OVCAR-5
Malme-3M = system: Malme-3M
OVCAR-8 = system: OVCAR-8
HOP-92 = system: HOP-92
NCI-H226 = system: NCI-H226
OVCAR-4 = system: OVCAR-4
COLO 205 = system: COLO 205
NCI-H23 = system: NCI-H23
A498 = system: A498
Hs-578T = system: Hs-578T

Measured: GI50

Cc1cc2ccccc2oc(=O)/c1=N\Nc1ccccc1
inactive: LOX IMVI 60.1 µM | SK-MEL-5 84.1 µM | RXF 393 35.2 µM | SW-620 23 µM | SK-OV-3 21.5 µM | NCI/ADR-RES 32.3 µM | UACC-62 19.2 µM | BT-549 78.9 µM | IGROV-1 25.8 µM | OVCAR-5 > 100 µM | Malme-3M > 100 µM | OVCAR-8 28.8 µM | HOP-92 73.8 µM | NCI-H226 47.9 µM | OVCAR-4 48.1 µM | COLO 205 > 100 µM | NCI-H23 78.5 µM | A498 > 100 µM

COc1cc(OC)c(/C=N\Nc2nc3ccccc3c(=O)n2-c2ccccc2)c(OC)c1
inactive: LOX IMVI 23.2 µM | SK-MEL-5 26.2 µM | RXF 393 23.7 µM | SW-620 31 µM | SK-OV-3 24.9 µM | NCI/ADR-RES 19.9 µM | UACC-62 19.5 µM | IGROV-1 40.6 µM | OVCAR-5 43.9 µM | Malme-3M 28.1 µM | OVCAR-8 28.7 µM | HOP-92 24.8 µM | NCI-H226 19.4 µM | OVCAR-4 28.8 µM | COLO 205 45.3 µM | NCI-H23 58.5 µM | A498 11.8 µM

CC(=O)OCCC(O[Si](c1ccccc1)(c1ccccc1)C(C)(C)C)C(C)(C)O (configuration not stated)
inactive: LOX IMVI 24 µM | SK-MEL-5 51.6 µM | RXF 393 17.6 µM | SW-620 54.8 µM | SK-OV-3 42.7 µM | UACC-62 53.8 µM | IGROV-1 36.3 µM | OVCAR-5 > 100 µM | Malme-3M > 100 µM | OVCAR-8 38.9 µM | HOP-92 24.6 µM | NCI-H226 19.5 µM | OVCAR-4 64.1 µM | COLO 205 15.8 µM | NCI-H23 24.7 µM | A498 > 100 µM

CCC(C)(C)C1CCC2c3c([nH]c4ccccc34)C3C(=O)N(c4ccc(OC)cc4)C(=O)C3C2C1 (configuration not stated)
inactive: LOX IMVI 6.81 µM | RXF 393 20.4 µM | SW-620 17.4 µM | SK-OV-3 31.9 µM | NCI/ADR-RES 15.6 µM | UACC-62 54.7 µM | BT-549 16.1 µM | IGROV-1 15.7 µM | OVCAR-5 15.3 µM | Malme-3M 19.4 µM | OVCAR-8 12.9 µM | NCI-H226 16.5 µM | OVCAR-4 16.7 µM | COLO 205 10.3 µM | NCI-H23 10.5 µM

CC(C)=C/C(CC(O)(C(F)(F)F)C(F)(F)F)=N\O
inactive: LOX IMVI > 100 µM | SK-MEL-5 > 100 µM | Hs-578T > 100 µM | RXF 393 > 100 µM | SW-620 > 100 µM | SK-OV-3 > 100 µM | NCI/ADR-RES > 100 µM | UACC-62 > 100 µM | IGROV-1 > 100 µM | OVCAR-5 > 100 µM | Malme-3M > 100 µM | OVCAR-8 > 100 µM | HOP-92 > 100 µM | NCI-H226 > 100 µM | OVCAR-4 > 100 µM | COLO 205 > 100 µM | NCI-H23 > 100 µM | A498 50.9 µM

C=C(C)CCC1C=[N+]([O-])OC(C)(C)C1(C)C (configuration not stated)
inactive: LOX IMVI 80 µM | SK-MEL-5 > 100 µM | Hs-578T > 100 µM | RXF 393 > 100 µM | SW-620 39 µM | SK-OV-3 > 100 µM | NCI/ADR-RES > 100 µM | UACC-62 79.1 µM | IGROV-1 > 100 µM | OVCAR-5 > 100 µM | OVCAR-8 > 100 µM | HOP-92 > 100 µM | NCI-H226 > 100 µM | COLO 205 > 100 µM | A498 > 100 µM

Cc1ccc(CNc2ccc(Br)cc2)cc1
inactive: LOX IMVI 2.01 µM | SK-MEL-5 6.71 µM | Hs-578T 70.6 µM | RXF 393 23.1 µM | SW-620 37.5 µM | SK-OV-3 53.8 µM | NCI/ADR-RES 29.4 µM | UACC-62 4.41 µM | OVCAR-5 > 100 µM | Malme-3M 21.5 µM | OVCAR-8 16.3 µM | HOP-92 15 µM | NCI-H226 60 µM | COLO 205 16.5 µM | NCI-H23 50.2 µM | A498 29.3 µM

CCOP(=O)(OCC)/C(C#N)=C/c1cccn1C(C)C
inactive: LOX IMVI > 100 µM | SK-MEL-5 > 100 µM | RXF 393 > 100 µM | SW-620 > 100 µM | SK-OV-3 > 100 µM | NCI/ADR-RES > 100 µM | UACC-62 > 100 µM | BT-549 > 100 µM | IGROV-1 > 100 µM | OVCAR-5 > 100 µM | Malme-3M > 100 µM | OVCAR-8 > 100 µM | HOP-92 > 100 µM | NCI-H226 > 100 µM | COLO 205 > 100 µM | NCI-H23 > 100 µM | A498 > 100 µM

C[n+]1c(-c2ccc(/C=N/N=C/c3ccc(-c4cn5ccccc5[n+]4C)cc3)cc2)cn2ccccc21
inactive: SK-MEL-5 > 100 µM | Hs-578T > 100 µM | SW-620 > 100 µM | SK-OV-3 > 100 µM | NCI/ADR-RES > 100 µM | IGROV-1 > 100 µM | OVCAR-5 > 100 µM | OVCAR-8 > 100 µM | OVCAR-4 > 100 µM | COLO 205 > 100 µM
